Laboratory results reported in patent US20250107526A1, “METHOD OF IMPROVING PLANT GROWTH” (UPL CORPORATION LIMITED, priority 2022, published 2025).

Legend:
Format in all cases: in vivo
[1] = test system: seeds of different crops including corn, cotton and wheat
Protocol: (§1) The seed emergence index was evaluated for seeds of different crops including corn, cotton and wheat treated with cyazofamid. The treatment protocol and the results are disclosed in the table below. […] A suspension concentrate of 40% cyazofamid was used in the treatment.

wheat grains = assay: Plant growth improvement of wheat grains treated with cyazofamid, field trials
Description: The present inventors have determined the plant growth improvement in wheat grains treated with cyazofamid in field trials. The treatments employed have been depicted in table 4 below. The results in terms of crop establishment in field, root weight, shoot weight and the total plant weight have been indicated in table 5 below: [table]

Wheat seeds = assay: Emergence speed index (ESI) of treated seeds, wheat; conditions: suspension concentrate of 40% cyazofamid
Protocol: as §1

Cotton seeds = assay: Emergence speed index (ESI) of treated seeds, cotton; conditions: suspension concentrate of 40% cyazofamid
Protocol: as §1

Corn seeds = assay: Emergence speed index (ESI) of treated seeds, corn; conditions: suspension concentrate of 40% cyazofamid
Protocol: as §1

[2] = test system: maize seeds inoculated with Pythium ultimum; assay: Emergence and vigor of maize seeds inoculated with Pythium ultimum after cyazofamid seed treatment (growth chamber); conditions: 160 g/l suspension concentrate, 20 days after sowing
Protocol: An inoculum of Pythium ultimum isolated from cotton was used to inoculate maize seeds. The infected maize grains were mixed with soil in a ratio of 10:90 v/v, respectively. The seeds were treated as depicted in the Table 1 below. The seeds used in treatments 1, 3 and 4 were inoculated with Pythium ultimum. The said seeds were cultivated in a growth chamber at a temperature of 22° C., for a 10 h dark/14 h light photoperiod. The seed arrangement was 10 seeds/plot (pot 10×10 cm); 3rep1/treatment. [table] The % emergence of seeds and the % vigor was observed 20 days after sowing of seeds.

[3] = 10 g ai/100 kg (25 ml/100 kg seeds)
[4] = 20 g ai/100 kg (50 ml/100 kg seeds)
[5] = 30 g ai/100 kg (75 ml/100 kg seeds)
[6] = 50 g ai/100 kg (125 ml/100 kg seeds)
[7] = 100 g ai/100 kg (250 ml/100 kg seeds)
[8] = seed treatment 10 g/100/kg seeds
[9] = seed treatment 50 g/100/kg seeds

SMILES: Cc1ccc(-c2c(Cl)nc(C#N)n2S(=O)(=O)N(C)C)cc1 [Cyazofamid, 4-chloro-2-cyano-N, N-dimethyl-5-p-tolylimidazole-1-sulfonamide]
- phytotoxicity in the emergent plants ([1]; in vivo): no phytotoxicity observed
- emergence index of treated seeds compared with untreated seeds ([1]; in words, corn, cotton and wheat seeds, 10-100 g ai/100 kg): more efficient than untreated seeds
- Root weight (wheat grains; [3]): 3.1 g
- Shoot weight (wheat grains; [3]): 5.9 g
- Total plant weight (wheat grains; [3]): 9.0 g
- Crop establishment plants/m row 25 DAA (wheat grains; [3]): 81.5 plants/m row
- Crop establishment plants/m row 38 DAA (wheat grains; [3]): 74.5 plants/m row
- Root weight (wheat grains; [4]): 3.1 g
- Shoot weight (wheat grains; [4]): 5.3 g
- Total plant weight (wheat grains; [4]): 8.4 g
- Crop establishment plants/m row 25 DAA (wheat grains; [4]): 73.1 plants/m row
- Crop establishment plants/m row 38 DAA (wheat grains; [4]): 79.4 plants/m row
- Root weight (wheat grains; [5]): 3.8 g
- Shoot weight (wheat grains; [5]): 5.4 g
- Total plant weight (wheat grains; [5]): 9.2 g
- Crop establishment plants/m row 25 DAA (wheat grains; [5]): 74.8 plants/m row
- Crop establishment plants/m row 38 DAA (wheat grains; [5]): 80.8 plants/m row
- Root weight (wheat grains; [6]): 3.0 g
- Shoot weight (wheat grains; [6]): 5.0 g
- Total plant weight (wheat grains; [6]): 8.1 g
- Crop establishment plants/m row 25 DAA (wheat grains; [6]): 75.6 plants/m row
- Crop establishment plants/m row 38 DAA (wheat grains; [6]): 82.5 plants/m row
- Root weight (wheat grains; [7]): 2.9 g
- Shoot weight (wheat grains; [7]): 5.2 g
- Total plant weight (wheat grains; [7]): 8.1 g
- Crop establishment plants/m row 25 DAA (wheat grains; [7]): 74.0 plants/m row
- Crop establishment plants/m row 38 DAA (wheat grains; [7]): 79.9 plants/m row
- crop establishment in field, root weight, shoot weight and total plant weight compared with untreated control (wheat grains; in words, treated wheat grains, 10-100 g ai/100 kg): higher
- Emergence speed index (ESI) (Wheat seeds; 10 g ai/100 kg): 22.7
- Emergence speed index (ESI) (Wheat seeds; 50 g ai/100 kg): 23.0
- Emergence speed index (ESI) (Wheat seeds; 100 g ai/100 kg): 22.5
- Emergence speed index (ESI) (Cotton seeds; 10 g ai/100 kg): 6.9
- Emergence speed index (ESI) (Cotton seeds; 50 g ai/100 kg): 6.3
- Emergence speed index (ESI) (Cotton seeds; 100 g ai/100 kg): 6.5
- Emergence speed index (ESI) (Corn seeds; 10 g ai/100 kg): 32.7
- Emergence speed index (ESI) (Corn seeds; 50 g ai/100 kg): 32.9
- Emergence speed index (ESI) (Corn seeds; 100 g ai/100 kg): 32.6
- % emergence (20 DAS) [2, 8]: 76.67%
- % vigor (20 DAS) [2, 8]: 86.67%
- % emergence (20 DAS) [2, 9]: 73.33%
- % vigor (20 DAS) [2, 9]: 83.33%
